Laboratory results: PubChem BioAssay AID310 (DTP/NCI, 2004)
Where “and” joins values, the source holds several entries; their conditions need not be identical. Equal values may be shown once. Inconclusive results are not listed.

System: C3AKF1 mice, osteogenic sarcoma HE10734 s.c., tumor weight T/C
Test: NCI In Vivo Anticancer Drug Screen. Data for tumor model Osteogenic Sarcoma HE 10734 (subcutaneous) in C3AKF1 (CHKRF1) mice
Settings: endpoint: mean tumor weight, schedule: Q01DX010 (ip), higher = larger tumour
Protocol: The antitumor activity of compounds was measured in mice bearing transplantable tumors. Survival or tumor size were measured and the results are expressed as the measurement made in the treated group (T) divided by the measurement made in the vehicle treated control group (C). The tumor model used in this assay is Osteogenic Sarcoma HE 10734 (subcutaneous) in C3AKF1 (CHKRF1) mice

[1] = dose: 6.0 mg/kg/injection, vehicle: saline
[2] = dose: 12.0 mg/kg/injection, vehicle: saline
[3] = dose: 50.0 mg/kg/injection, vehicle: saline
[4] = dose: 100.0 mg/kg/injection, vehicle: saline
[5] = dose: 12.5 mg/kg/injection, vehicle: carboxymethylcellulose (CMC)
[6] = dose: 25.0 mg/kg/injection, vehicle: carboxymethylcellulose (CMC)
[7] = dose: 62.5 mg/kg/injection, vehicle: carboxymethylcellulose (CMC)
[8] = dose: 125.0 mg/kg/injection, vehicle: carboxymethylcellulose (CMC)
[9] = dose: 500.0 mg/kg/injection, vehicle: carboxymethylcellulose (CMC)
[10] = dose: 50.0 mg/kg/injection, vehicle: carboxymethylcellulose (CMC)
[11] = dose: 3.0 mg/kg/injection, vehicle: saline
[12] = dose: 25.0 mg/kg/injection, vehicle: saline
[13] = dose: 0.75 mg/kg/injection, vehicle: saline

`[I][Hg][CH2]C1COCC([CH2][Hg][I])O1.[I][Hg][CH2]C1COCC([CH2][Hg][I])O1` (configuration not stated) was tested, and the T/C [1] was 83 % of control and the T/C [2] was 52 % of control.
With `CCCC(Sc1nc(N)nc2nc[nH]c12)C(=O)O` (configuration not stated) the T/C [3] was 80 % of control, the T/C [4] was 53 % of control and the T/C (dose: 200.0 mg/kg/injection, vehicle: saline) was 40 % of control. For the same molecule, the T/C (dose: 400.0 mg/kg/injection, vehicle: saline) was 17 % of control.
In the case of `Cc1ccc(N2CCN(CCCN3CCN(c4ccc(Cl)cc4)CC3)CC2)cc1`, the T/C (dose: 6.25 mg/kg/injection, vehicle: carboxymethylcellulose (CMC)) is reported as 97 % of control, the T/C [5] is reported as 77 % of control and the T/C [6] is reported as 102 % of control.
In the case of `CS(=O)(=O)OC[C@@H](O)[C@@H](O)COS(C)(=O)=O`, the T/C [7] is reported as 88 % of control, the T/C [8] is reported as 53 % of control and 74 % of control and the T/C [9] is reported as 92 % of control and 109 % of control.
`CCN(CC)CCN1C(=O)c2cccc3cccc(c23)C1=O` was tested, and the T/C [6] was 86 % of control, the T/C [10] was 78 % of control and the T/C (dose: 100.0 mg/kg/injection, vehicle: carboxymethylcellulose (CMC)) was 85 % of control.
`Cc1nc(N)nc(N)c1-c1ccc(Cl)c(Cl)c1` was tested, and the T/C (dose: 0.09 mg/kg/injection, vehicle: carboxymethylcellulose (CMC)) was 94 % of control, the T/C (dose: 0.18 mg/kg/injection, vehicle: carboxymethylcellulose (CMC)) was 103 % of control and the T/C (dose: 0.37 mg/kg/injection, vehicle: carboxymethylcellulose (CMC)) was 88 % of control. For the same molecule, the T/C (dose: 1.5 mg/kg/injection, vehicle: carboxymethylcellulose (CMC)) was 21 % of control.
With `CC(CCc1cccc2ccccc12)(C(=O)O)C(=O)O` the T/C (dose: 35.0 mg/kg/injection, vehicle: saline) was 68 % of control and the T/C [3] was 157 % of control.
In the case of `CN(C)Nc1ncnc2nc[nH]c12`, the T/C (dose: 20.0 mg/kg/injection, vehicle: saline) is reported as 84 % of control, the T/C (dose: 40.0 mg/kg/injection, vehicle: saline) is reported as 72 % of control and the T/C (dose: 80.0 mg/kg/injection, vehicle: saline) is reported as 38 % of control.
With `CCCCn1cnc2c(=S)nc(N)[nH]c21` the T/C [11] was 49 % of control, the T/C [1] was 51 % of control and the T/C (dose: 11.0 mg/kg/injection, vehicle: saline) was 29 % of control. The T/C (dose: 22.0 mg/kg/injection, vehicle: saline) was 7 % of control.
`CC(=O)Nc1ccc(NC(=O)c2ccc([As](O)O)cc2)cc1` was tested, and the T/C (dose: 15.0 mg/kg/injection, vehicle: carboxymethylcellulose (CMC)) was 89 % of control, the T/C (dose: 30.0 mg/kg/injection, vehicle: carboxymethylcellulose (CMC)) was 111 % of control and the T/C (dose: 60.0 mg/kg/injection, vehicle: carboxymethylcellulose (CMC)) was 85 % of control. For the same molecule, the T/C (dose: 120.0 mg/kg/injection, vehicle: carboxymethylcellulose (CMC)) was 61 % of control and 62 % of control and the T/C (dose: 240.0 mg/kg/injection, vehicle: carboxymethylcellulose (CMC)) was 32 % of control.
In the case of `c1ccc(CSc2ncnc3nc[nH]c23)nc1`, the T/C [3] is reported as 76 % of control and 81 % of control and the T/C [4] is reported as 29 % of control and 39 % of control.
In the case of `O=C(O)C(=O)c1ccc(-c2ccccc2)cc1`, the T/C (dose: 35.0 mg/kg/injection, vehicle: carboxymethylcellulose (CMC)) is reported as 69 % of control.
`CCOc1ccc(Nc2ncnc3nc[nH]c23)cc1CN(CCCl)CCCl` was tested, and the T/C (dose: 1.0 mg/kg/injection, vehicle: carboxymethylcellulose (CMC)) was 86 % of control, the T/C (dose: 4.0 mg/kg/injection, vehicle: carboxymethylcellulose (CMC)) was 94 % of control and the T/C (dose: 8.0 mg/kg/injection, vehicle: carboxymethylcellulose (CMC)) was 83 % of control and 95 % of control.
In the case of `O=C(NO)c1ccncc1`, the T/C (dose: 125.0 mg/kg/injection, vehicle: saline) is reported as 113 % of control, the T/C (dose: 250.0 mg/kg/injection, vehicle: saline) is reported as 123 % of control and the T/C (dose: 500.0 mg/kg/injection, vehicle: saline) is reported as 102 % of control.
With `COc1cc([C@@H]2c3cc4c(cc3[C@H](O)[C@H]3COC(=O)[C@@H]23)OCO4)cc(OC)c1OC` the T/C (dose: 7.0 mg/kg/injection, vehicle: saline) was 75 % of control.
For `Nc1ccc2ccccc2c1N=Nc1ccccc1`, the T/C [7] was 101 % of control, the T/C [8] was 100 % of control and the T/C (dose: 250.0 mg/kg/injection, vehicle: carboxymethylcellulose (CMC)) was 65 % of control. The T/C [9] was 41 % of control.
With `O=C(O)CC(O)(CC(=O)O)C(=O)O.[Ga]` the T/C [5] was 84 % of control, the T/C [6] was 84 % of control and the T/C [10] was 39 % of control.
For `CCn1cnc2c(SC)nc(N)nc21`, the T/C [2] was 76 % of control, the T/C [12] was 93 % of control and the T/C [3] was 95 % of control. For the same molecule, the T/C [4] was 108 % of control and the T/C (dose: 340.0 mg/kg/injection, vehicle: saline) was 57 % of control.
With `O=P(c1ccccc1)(N1CC1)N1CC1` the T/C (dose: 3.13 mg/kg/injection, vehicle: saline) was 106 % of control, the T/C (dose: 6.25 mg/kg/injection, vehicle: saline) was 93 % of control and the T/C (dose: 12.5 mg/kg/injection, vehicle: saline) was 105 % of control. The T/C [12] was 68 % of control and 71 % of control.
For `Clc1ncnc2c1ncn2C1CCCO1` (configuration not stated), the T/C (dose: 37.0 mg/kg/injection, vehicle: saline) was 77 % of control and 80 % of control and the T/C (dose: 450.0 mg/kg/injection, vehicle: saline) was 69 % of control.
In the case of `S=c1nc[nH]c2c1ncn2C1CCCO1` (configuration not stated), the T/C [2] is reported as 84 % of control, the T/C [12] is reported as 85 % of control and the T/C [3] is reported as 62 % of control. The T/C [4] was 30 % of control and 33 % of control.
In the case of `O=C(Nc1ccc(C2=NCCN2)cc1)c1ccc(C(=O)Nc2ccc(C3=NCCN3)cc2)c(NC(=O)c2ccc(C(=O)Nc3cc(C(=O)Nc4ccc(C5=NCCN5)cc4)ccc3C(=O)Nc3ccc(C4=NCCN4)cc3)cc2)c1`, the T/C (dose: 28.0 mg/kg/injection, vehicle: saline) is reported as 111 % of control, the T/C (dose: 45.0 mg/kg/injection, vehicle: saline) is reported as 104 % of control and the T/C (dose: 65.0 mg/kg/injection, vehicle: saline) is reported as 118 % of control. For the same molecule, the T/C (dose: 95.0 mg/kg/injection, vehicle: saline) was 98 % of control and 107 % of control, the T/C (dose: 140.0 mg/kg/injection, vehicle: saline) was 93 % of control and the T/C (dose: 210.0 mg/kg/injection, vehicle: saline) was 89 % of control. The T/C (dose: 315.0 mg/kg/injection, vehicle: saline) was 110 % of control.
For `COc1ccc(Nc2ccnc3cc(Cl)ccc23)cc1CN(CCCl)CCCl`, the T/C [13] was 73 % of control, the T/C (dose: 1.5 mg/kg/injection, vehicle: saline) was 57 % of control and the T/C [11] was 69 % of control.
For `Nc1nc(SCc2ccccc2Cl)c2[nH]cnc2n1`, the T/C (dose: 6.0 mg/kg/injection, vehicle: carboxymethylcellulose (CMC)) was 70 % of control, the T/C (dose: 12.0 mg/kg/injection, vehicle: carboxymethylcellulose (CMC)) was 52 % of control and the T/C [6] was 54 % of control. For the same molecule, the T/C [10] was 43 % of control, the T/C [3] was 32 % of control and 39 % of control and the T/C (dose: 70.0 mg/kg/injection, vehicle: saline) was 41 % of control. The T/C (dose: 110.0 mg/kg/injection, vehicle: saline) was 16 % of control and 33 % of control and the T/C (dose: 165.0 mg/kg/injection, vehicle: saline) was 13 % of control.
In the case of `CCCC(=O)NC1=C(N2CC2)C(=O)C(NC(=O)CCC)=C(N2CC2)C1=O`, the T/C (dose: 0.5 mg/kg/injection, vehicle: saline) is reported as 104 % of control, the T/C [13] is reported as 72 % of control and the T/C (dose: 1.1 mg/kg/injection, vehicle: saline) is reported as 83 % of control. For the same molecule, the T/C (dose: 1.7 mg/kg/injection, vehicle: saline) was 47 % of control and 60 % of control.
